According to ChEMBL document CHEMBL1649562, “Emergence of high levels of extended-spectrum-beta-lactamase-producing gram-negative bacilli in the Asia-Pacific region: data from the Study for Monitoring Antimicrobial Resistance Trends (SMART) program, 2007” (2009):
Active and inactive are the calls of the source. No cut-off for these calls is given here.

Each molecule was assayed on Proteus mirabilis (assay: Antimicrobial activity against Proteus mirabilis assessed as percent susceptible isolates by CLSI method).
Format: functional

| SMILES | Activity |
| --- | --- |
| C[C@@H](O)[C@H]1C(=O)N2C(C(=O)O)=C(S[C@@H]3CN[C@H](C(=O)Nc4cccc(C(=O)O)c4)C3)[C@H](C)[C@H]12 | 100% |
| NCC[C@H](O)C(=O)N[C@@H]1C[C@H](N)[C@@H](O[C@H]2O[C@H](CN)[C@@H](O)[C@H](O)[C@H]2O)[C@H](O)[C@H]1O[C@H]1O[C@H](CO)[C@@H](O)[C@H](N)[C@H]1O [AMIKACIN] | 92% |
| CO/N=C(\C(=O)N[C@@H]1C(=O)N2C(C(=O)O)=C(COC(C)=O)CS[C@H]12)c1csc(N)n1 [CEFOTAXIME] | 77% |

Each molecule was assayed on Citrobacter freundii (assay: Antimicrobial activity against Citrobacter freundii assessed as percent susceptible isolates by CLSI method).
Format: functional

| SMILES | Activity |
| --- | --- |
| C[C@@H](O)[C@H]1C(=O)N2C(C(=O)O)=C(S[C@@H]3CN[C@H](C(=O)Nc4cccc(C(=O)O)c4)C3)[C@H](C)[C@H]12 | 98% |
| NCC[C@H](O)C(=O)N[C@@H]1C[C@H](N)[C@@H](O[C@H]2O[C@H](CN)[C@@H](O)[C@H](O)[C@H]2O)[C@H](O)[C@H]1O[C@H]1O[C@H](CO)[C@@H](O)[C@H](N)[C@H]1O [AMIKACIN] | 84% |
| CO/N=C(\C(=O)N[C@@H]1C(=O)N2C(C(=O)O)=C(COC(C)=O)CS[C@H]12)c1csc(N)n1 [CEFOTAXIME] | 43% |

What follows are molecules tested on Pseudomonas aeruginosa (assay: Antimicrobial activity against Pseudomonas aeruginosa assessed as percent susceptible isolates by CLSI method).
Format: functional

| SMILES | Activity |
| --- | --- |
| C[C@@H](O)[C@H]1C(=O)N2C(C(=O)O)=C(S[C@@H]3CN[C@H](C(=O)Nc4cccc(C(=O)O)c4)C3)[C@H](C)[C@H]12 | inactive |
| NCC[C@H](O)C(=O)N[C@@H]1C[C@H](N)[C@@H](O[C@H]2O[C@H](CN)[C@@H](O)[C@H](O)[C@H]2O)[C@H](O)[C@H]1O[C@H]1O[C@H](CO)[C@@H](O)[C@H](N)[C@H]1O [AMIKACIN] | 85% |
| CO/N=C(\C(=O)N[C@@H]1C(=O)N2C(C(=O)O)=C(COC(C)=O)CS[C@H]12)c1csc(N)n1 [CEFOTAXIME] | 14% |

These molecules were tested on Klebsiella oxytoca (assay: Antimicrobial activity against extended spectrum beta-lactamase-expressing Klebsiella oxytoca assessed as percent susceptible isolates by CLSI method).
Format: functional

| SMILES | Activity |
| --- | --- |
| C[C@@H](O)[C@H]1C(=O)N2C(C(=O)O)=C(S[C@@H]3CN[C@H](C(=O)Nc4cccc(C(=O)O)c4)C3)[C@H](C)[C@H]12 | 100% |
| NCC[C@H](O)C(=O)N[C@@H]1C[C@H](N)[C@@H](O[C@H]2O[C@H](CN)[C@@H](O)[C@H](O)[C@H]2O)[C@H](O)[C@H]1O[C@H]1O[C@H](CO)[C@@H](O)[C@H](N)[C@H]1O [AMIKACIN] | 86% |
| CO/N=C(\C(=O)N[C@@H]1C(=O)N2C(C(=O)O)=C(COC(C)=O)CS[C@H]12)c1csc(N)n1 [CEFOTAXIME] | 14% |

These molecules were tested on Klebsiella pneumoniae (assay: Antimicrobial activity against extended spectrum beta-lactamase-expressing Klebsiella pneumoniae assessed as percent susceptible isolates by CLSI method).
Format: functional

| SMILES | Activity |
| --- | --- |
| C[C@@H](O)[C@H]1C(=O)N2C(C(=O)O)=C(S[C@@H]3CN[C@H](C(=O)Nc4cccc(C(=O)O)c4)C3)[C@H](C)[C@H]12 | 86% |
| NCC[C@H](O)C(=O)N[C@@H]1C[C@H](N)[C@@H](O[C@H]2O[C@H](CN)[C@@H](O)[C@H](O)[C@H]2O)[C@H](O)[C@H]1O[C@H]1O[C@H](CO)[C@@H](O)[C@H](N)[C@H]1O [AMIKACIN] | 73% |
| CO/N=C(\C(=O)N[C@@H]1C(=O)N2C(C(=O)O)=C(COC(C)=O)CS[C@H]12)c1csc(N)n1 [CEFOTAXIME] | 9% |

These molecules were tested on Escherichia coli (assay: Antimicrobial activity against extended spectrum beta-lactamase-deficient Escherichia coli assessed as percent susceptible isolates by CLSI method).
Format: functional

| SMILES | Activity |
| --- | --- |
| C[C@@H](O)[C@H]1C(=O)N2C(C(=O)O)=C(S[C@@H]3CN[C@H](C(=O)Nc4cccc(C(=O)O)c4)C3)[C@H](C)[C@H]12 | 100% |
| NCC[C@H](O)C(=O)N[C@@H]1C[C@H](N)[C@@H](O[C@H]2O[C@H](CN)[C@@H](O)[C@H](O)[C@H]2O)[C@H](O)[C@H]1O[C@H]1O[C@H](CO)[C@@H](O)[C@H](N)[C@H]1O [AMIKACIN] | 98% |
| CO/N=C(\C(=O)N[C@@H]1C(=O)N2C(C(=O)O)=C(COC(C)=O)CS[C@H]12)c1csc(N)n1 [CEFOTAXIME] | 97% |

These molecules were tested on Escherichia coli (assay: Antimicrobial activity against extended spectrum beta-lactamase-expressing Escherichia coli assessed as percent susceptible isolates by CLSI method).
Format: functional

| SMILES | Activity |
| --- | --- |
| C[C@@H](O)[C@H]1C(=O)N2C(C(=O)O)=C(S[C@@H]3CN[C@H](C(=O)Nc4cccc(C(=O)O)c4)C3)[C@H](C)[C@H]12 | 96% |
| NCC[C@H](O)C(=O)N[C@@H]1C[C@H](N)[C@@H](O[C@H]2O[C@H](CN)[C@@H](O)[C@H](O)[C@H]2O)[C@H](O)[C@H]1O[C@H]1O[C@H](CO)[C@@H](O)[C@H](N)[C@H]1O [AMIKACIN] | 87% |
| CO/N=C(\C(=O)N[C@@H]1C(=O)N2C(C(=O)O)=C(COC(C)=O)CS[C@H]12)c1csc(N)n1 [CEFOTAXIME] | 5% |

What follows are molecules tested on Klebsiella pneumoniae (assay: Antimicrobial activity against extended spectrum beta-lactamase-deficient Klebsiella pneumoniae assessed as percent susceptible isolates by CLSI method).
Format: functional

| SMILES | Activity |
| --- | --- |
| C[C@@H](O)[C@H]1C(=O)N2C(C(=O)O)=C(S[C@@H]3CN[C@H](C(=O)Nc4cccc(C(=O)O)c4)C3)[C@H](C)[C@H]12 | 99% |
| NCC[C@H](O)C(=O)N[C@@H]1C[C@H](N)[C@@H](O[C@H]2O[C@H](CN)[C@@H](O)[C@H](O)[C@H]2O)[C@H](O)[C@H]1O[C@H]1O[C@H](CO)[C@@H](O)[C@H](N)[C@H]1O [AMIKACIN] | 99% |
| CO/N=C(\C(=O)N[C@@H]1C(=O)N2C(C(=O)O)=C(COC(C)=O)CS[C@H]12)c1csc(N)n1 [CEFOTAXIME] | 97% |

The molecules below were run on Klebsiella oxytoca (assay: Antimicrobial activity against extended spectrum beta-lactamase-deficient Klebsiella oxytoca assessed as percent susceptible isolates by CLSI method).
Format: functional

| SMILES | Activity |
| --- | --- |
| C[C@@H](O)[C@H]1C(=O)N2C(C(=O)O)=C(S[C@@H]3CN[C@H](C(=O)Nc4cccc(C(=O)O)c4)C3)[C@H](C)[C@H]12 | 100% |
| NCC[C@H](O)C(=O)N[C@@H]1C[C@H](N)[C@@H](O[C@H]2O[C@H](CN)[C@@H](O)[C@H](O)[C@H]2O)[C@H](O)[C@H]1O[C@H]1O[C@H](CO)[C@@H](O)[C@H](N)[C@H]1O [AMIKACIN] | 100% |
| CO/N=C(\C(=O)N[C@@H]1C(=O)N2C(C(=O)O)=C(COC(C)=O)CS[C@H]12)c1csc(N)n1 [CEFOTAXIME] | 97% |

Each molecule was assayed on Enterobacter cloacae (assay: Antimicrobial activity against Enterobacter cloacae assessed as percent susceptible isolates by CLSI method).
Format: functional

| SMILES | Activity |
| --- | --- |
| C[C@@H](O)[C@H]1C(=O)N2C(C(=O)O)=C(S[C@@H]3CN[C@H](C(=O)Nc4cccc(C(=O)O)c4)C3)[C@H](C)[C@H]12 | 94% |
| NCC[C@H](O)C(=O)N[C@@H]1C[C@H](N)[C@@H](O[C@H]2O[C@H](CN)[C@@H](O)[C@H](O)[C@H]2O)[C@H](O)[C@H]1O[C@H]1O[C@H](CO)[C@@H](O)[C@H](N)[C@H]1O [AMIKACIN] | 92% |
| CO/N=C(\C(=O)N[C@@H]1C(=O)N2C(C(=O)O)=C(COC(C)=O)CS[C@H]12)c1csc(N)n1 [CEFOTAXIME] | 49% |

Each molecule was assayed on Klebsiella aerogenes (assay: Antimicrobial activity against Enterobacter aerogenes assessed as percent susceptible isolates by CLSI method).
Format: functional

| SMILES | Activity |
| --- | --- |
| C[C@@H](O)[C@H]1C(=O)N2C(C(=O)O)=C(S[C@@H]3CN[C@H](C(=O)Nc4cccc(C(=O)O)c4)C3)[C@H](C)[C@H]12 | 97% |
| NCC[C@H](O)C(=O)N[C@@H]1C[C@H](N)[C@@H](O[C@H]2O[C@H](CN)[C@@H](O)[C@H](O)[C@H]2O)[C@H](O)[C@H]1O[C@H]1O[C@H](CO)[C@@H](O)[C@H](N)[C@H]1O [AMIKACIN] | 83% |
| CO/N=C(\C(=O)N[C@@H]1C(=O)N2C(C(=O)O)=C(COC(C)=O)CS[C@H]12)c1csc(N)n1 [CEFOTAXIME] | 48% |
